The results in this text go back to patent US20260234165A1, “MACROCYCLIC COMPOUNDS, PREPARATION METHOD THEREFOR, AND USE THEREOF” (GENFLEET THERAPEUTICS (SHANGHAI) INC., priority 2004, published 2026).

One may read the half-life as the time in which the quantity being followed falls by half. Broadly, the CLint scaled is the capacity of the preparation to metabolise the compound, expressed as a volume cleared per time. High values mean rapid turnover, low ones slow turnover. Broadly, the clearance is a measure of how efficiently the substance is removed, as volume per time. High values mean efficient removal, low ones inefficient removal. By AUC is commonly meant the area under the concentration-time curve, a measure of exposure. Broadly, the Cmax is the peak of the concentration-time curve.

Series [1] is described as follows: Assay for stability in liver microsomes. Conditions: human liver microsomes. It counts as in vitro ADME. How it is done: This experiment was intended to investigate the metabolic stability of the test compounds in human liver microsomes. The materials used in the experiment included 10 mM solutions of the test compounds and the control sample, human liver microsomes, and reduced nicotinamide adenine dinucleotide phosphate (NADPH) powder. In the experiment, a 100 mM potassium phosphate buffer was used as the buffer system.
The liver microsome working solution was prepared by diluting the liver microsome stock solution to 0.75 mg/mL using the 100 mM potassium phosphate buffer. Then, 5 μL of the 10 mM stock solution of the test compound was taken, and 195 μL of methanol was added. The mixture was well mixed to prepare a working solution A with a concentration of 0.25 mM.
Subsequently, the working solution A was diluted to 1.5 μM using the liver microsome working solution to prepare a compound-liver microsome mixed solution. Additionally, NADPH powder was dissolved in a 100) mM potassium phosphate buffer to prepare a 6 mM NADPH solution. The compound-liver microsome mixed solution was dispensed into a 96-well plate at 30 μL/well, with labeled time points of 0 min, 30 min, and 60 min. For 0-min samples, 180 μL of acetonitrile containing 100 ng/mL tolbutamide and 15 μL of the NADPH solution were added directly. The 96-well plate and the NADPH solution were then preheated under a 37° C. water bath for 5 min. After the preheating, 15 μL of the NADPH solution was added to each of the 30-min and 60-min sample wells. The plate was gently shaken for mixing and then incubated under the 37° C. water bath for the corresponding time. After the incubation was completed. 180 μL of acetonitrile containing 100 ng/mL tolbutamide was added to each sample well. The plate was sealed with a sealing film, shaken for 10 min (800 rpm/min), and then centrifuged for 15 min (4000 rpm). After the centrifugation, 50 μL of the supernatant was taken and added to a 96-well plate containing 150 μL of deionized water, and then the plate was sealed and shaken for 10 min (800 rpm) for uniform mixing. Subsequently sample analysis was performed using liquid chromatography-tandem mass spectrometry (LC-MS/MS).
The elimination rate constant and clearance rate of the test compound in liver microsomes were calculated using the following formulas: Remaining rate (%)=(peak area ratio of the compound to internal standard at any time point/peak area ratio of the compound to internal standard at 0 min)×100%,^4. T1/2=0.693/ke, where ke is the elimination rate constant and T1/2 is the half-life. Liver microsome intrinsic clearance rate (CLint(mic))=0.693/(T1/2× microsome protein concentration (mg/mL)). Liver intrinsic clearance rate (CLint(liver))=CLint(mic)×microsome protein-to-liver weight ratio (mg/g)×liver-to-body weight ratio (g/kg). In the formulas, CLint(mic) is the liver microsome intrinsic clearance rate, CLint(liver) is the liver intrinsic clearance rate, and CL(liver) is the liver clearance rate. For humans, the microsome protein-to-liver weight ratio was 45 mg/g, and the liver-to-body weight ratio was 20.7 g/kg.

The nature of series [2]: Pharmacokinetic study in rats. It counts as in vivo, Sprague-Dawley (SD) rats. The note with it: Sprague-Dawley, rat, plasma, male SD rats. An excerpt: A total of 6 healthy adult male Sprague-Dawley (SD) rats were provided by Zhejiang Vital River Laboratory Animal Technology Co., Ltd. For each test compound, 6 healthy adult male SD rats were selected and randomly divided into 2 groups: an intravenous administration (IV) group and an intragastric administration (PO) group. The LC-MS/MS method was used to determine the drug concentrations in the plasma of rats at different time points after intravenous and intragastric administration of the test compounds. This experiment was intended to investigate the pharmacokinetic performance of the test compounds in rats and to evaluate the pharmacokinetic characteristics. Each drug used in the experiment was prepared from the test compound powder: An appropriate amount of test compound powder was weighed out, and appropriate amounts of DMSO, a 10% aqueous Solutol HS 15 solution, and a 6% aqueous HP-β-CD solution were sequentially added according to a volume ratio of 5:10:85. The mixture was vortexed and sonicated until clarification. The final concentration of the drug in the IV group was 0.5 mg/mL, and the final concentration of the drug in the PO group was 1 mg/mL; the concentrations could be adjusted according to actual needs. For the drug in the PO group of Z504, an appropriate amount of test compound powder was weighed out, and an appropriate amount of 0.5% MC+0.2% Tween 80 aqueous solution was added. The mixture was well mixed by vortexing to give a 1 mg/mL homogeneous suspension: the concentration could be adjusted according to actual needs.
All experimental rats were fasted overnight, and food intake was resumed 4 h after administration. For the rats in the IV group, the administration volume was set at 2 mL/kg, with Z554 and Z915 administered at a dose of 0.5 mg/kg and the other compounds at a dose of 1 mg/kg. For the rats in the PO group, the administration volume was 10 mL/kg and the dose was 10 mg/kg. The administration amount was adjusted according to the body weight of the rats on the day of administration. In the experiment, blood samples were collected from the rats in the IV group at multiple time points (0.0833 h, 0.25 h, 0.5 h, 1 h, 2 h, 4 h, 7 h, and 24 h) after administration, while blood samples were collected from the PO group at 0.25 h, 0.5 h, 1 h, 2 h, 4 h, 7 h, and 24 h after administration, with approximately 100 μL collected each time via the orbital blood collection method.
The blood samples were placed in centrifuge tubes containing EDTA-K2 and centrifuged at 8000 rpm for 4 min within 30 min to separate the supernatant plasma. The resulting plasma samples were stored at −20° C. for later use. For sample analysis, 20 μL of each of plasma samples and calibration standards was added to a 96-well plate, and 160 μL of acetonitrile containing 100 ng/mL tolbutamide was added. The samples were vortexed for 5 min for uniform mixing, and then centrifuged at 4000 rpm for 15 min. After the centrifugation was completed, 50 μL of supernatant was added to a 96-well plate containing 150 μL of deionized water. The plate was then sealed and shaken for uniform mixing. Sample analysis was performed by LC-MS/MS.
The sampling volume could be adjusted according to actual needs, but the final concentration should be kept unchanged.

`CCn1c(-c2cc(N3CCN(C)CC3)cnc2[C@H](C)OC)c2c3cc(ccc31)-c1csc(n1)C[C@H](NC(=O)[C@H]1[C@H](C)[C@@H]1C)C(=O)N1CCC[C@H](N1)C(=O)OCC(C)(C)C2` (atropisomer, axis not shown; (Ra)) [Control compound 1, (1r,2R,3S)—N-((6^3S,Z)-1^1-ethyl-(Ra)-1^2-(2-((S)-1-methoxyethyl)-5-(4-methylpiperazin-1-yl)pyridin-3-yl)-10,10-dimethyl-5,7-dioxo-6^1,6^2,6^3,6^4,6^5,6^6-hexahydro-1^1H-8-oxa-2(4,2)-thiazola-1(5,3)-indola-6(1,3)-pyridazinacycloundecaphane-4-yl)-2,3-dimethylcyclopropane-1-carboxamide, reference compound] showed a half-life at 1 µM in series [1] (NADPH, 37° C., 0/30/60 min) of 11.8 min. The compound also returned a CLint scaled at 1 µM in series [1] (liver intrinsic clearance rate) of 136 mL/min/kg. In series [2] (IV, dose 1 mg/kg), this compound yielded a clearance of 42.8 mL/min/kg. In addition, in series [2] (PO (intragastric), dose 10 mg/kg, read-out: AUC), the AUC worked out at 1220 ng·h/mL. For the same compound, the Cmax in series [2] (PO (intragastric), dose 10 mg/kg, read-out: Cmax) was determined as 365 ng/mL.
